Measured values published in publication PMC8151276, “An Integrated Approach toward NanoBRET Tracers for Analysis of GPCR Ligand Engagement” (Molecules, 2021).

Columns and labels:
Type in all cases: binding
CXCR1 = molecular target: T1, CXCR1 (Homo sapiens, UniProt P25024); test: NanoBRET screen HiBiT-CXCR1 in HEK293
T1 construct: purchased Promega (in-house HiBiT-GPCR construct library, NanoBRET)
T1 sequence (P25024 1-350): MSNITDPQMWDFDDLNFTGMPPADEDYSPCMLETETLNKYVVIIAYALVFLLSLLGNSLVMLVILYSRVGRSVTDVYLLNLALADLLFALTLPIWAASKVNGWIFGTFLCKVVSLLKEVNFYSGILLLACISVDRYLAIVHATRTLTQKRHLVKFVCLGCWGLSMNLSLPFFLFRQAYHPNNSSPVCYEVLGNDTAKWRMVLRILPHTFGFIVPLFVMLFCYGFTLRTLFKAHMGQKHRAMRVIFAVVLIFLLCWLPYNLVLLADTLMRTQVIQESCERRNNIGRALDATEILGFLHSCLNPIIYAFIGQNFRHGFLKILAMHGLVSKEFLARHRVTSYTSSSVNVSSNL
Method: (§1) Each tracer candidate was screened across the entire library of HiBiT-GPCR constructs using NanoBRET as the detection modality. As depicted in Figure 4A, the specificity of interactions was evaluated through decrease in BRET due to competitive displacement of a bound tracer by excess parental compound. Each tracer was analyzed for binding to each HiBiT-GPCR fusion in the absence and in the presence of competing parental compound. Briefly, HEK293 cells were transfected with HiBiT-GPCR constructs diluted into promoterless DNA to reduce expression and maximize translocation to the cell surface. Each tracer candidate was then screened at concentrations of 1 μM and 0.1 μM across cells expressing these fusions. Cells were treated for 1.5 h with tracer either alone or in the presence of 20 μM competing parental compound (i.e., control). BRET was measured upon addition of purified LgBiT and subsequent complementation with HiBiT genetically fused to a GPCR. The specificity of interactions was assessed through a decrease in BRET signal due to competitive displacement of the bound tracer. To further gauge the robustness of these interactions, the fold response over the control (i.e., BRETtracer/BRETcontrol) was calculated. We chose a 1.5-fold response, which translates to ≥7-fold signal over noise as the minimal threshold required to score an interaction as positive. […]. Below we highlight the screening results obtained for our exemplary fluorescent tracers based on Clozapine, Amitriptyline and AZD1283.
(§2) HiBiT-GPCR DNA constructs were diluted in 10 mM Tris pH 8 to a final concentration of 0.01 μg/μL, arrayed in 96-well plates and stored at −20 °C. For transfection, HEK293 cells were suspended in Opti-MEM (without phenol red) supplemented with 2% fetal bovine serum (Seradigm) and 100 units/mL penicillin–streptomycin (Gibco) at a final concentration of 220,000 cells/mL and dispensed into white 96-well plates at 90 μL/well. Subsequent transfections and screens were carried using an Agilent Bravo Automated Liquid Handling Platform. First, the 96-well HiBiT DNA arrays were diluted 25-fold in Opti-MEM (without serum or phenol red) to a final concentration of 0.0004 μg/μL and 20 μL of the diluted DNAs were transferred into new 96-well plates. Next, promoterless carrier DNA (1 μg/μL) was diluted 25-fold (0.04 μg/μL) and then dispensed into the diluted arrays at 20 μL/well. Following brief mixing, Viafect transfection reagent (Promega) diluted 16-fold into Opti-MEM was dispensed into the plates at 40 μL/well. After mixing by pipetting, plates were incubated for 10 min on the pipetting station deck. The DNA-transfection reagent complexes were then added to plates containing cells. To facilitate the screen, 10 μL of DNA-transfection reagent complexes were added in duplicates to the top 4 and bottom 4 rows, resulting in two identical 48-well arrays per plate. Plates with transfected cells were incubated for 18–20 h at 37 °C/5% CO2. A screen of each tracer across the entire library using two different concentrations requires duplicate plates of transfected cells. Depending on the number of tracers being screened, transfections can be scaled up using the same ratios. The next day, for each tracer, four 20× screening solutions in tracer dilution buffer (Promega) were prepared: two duplicates at final concentration of 20 μM and two duplicates at a final concentration of 2 μM. A competing unmodified compound was added to one of each duplicate at a final concentration of 400 μM. The four resulting solutions were diluted 4-fold in Opti-MEM without serum or phenol red to generate 5× solutions (5 µM and 0.5 µM tracer +/− 100 μM competing compound). To screen the library, a BioTek MultiFlo FX liquid dispenser was used to dispense 22.5 µL of tracer solution to the top 4 rows and 22.5 µL tracer + competing compound solution to the 4 bottom rows. Plates were briefly mixed on an orbital shaker and incubated for 1.5 h at room temperature. […]

FZD9 = molecular target: T2, FZD9 (Homo sapiens, UniProt O00144); test: NanoBRET screen HiBiT-FZD9 in HEK293
T2 construct: purchased Promega (in-house HiBiT-GPCR construct library, NanoBRET)
T2 sequence (O00144 23-591): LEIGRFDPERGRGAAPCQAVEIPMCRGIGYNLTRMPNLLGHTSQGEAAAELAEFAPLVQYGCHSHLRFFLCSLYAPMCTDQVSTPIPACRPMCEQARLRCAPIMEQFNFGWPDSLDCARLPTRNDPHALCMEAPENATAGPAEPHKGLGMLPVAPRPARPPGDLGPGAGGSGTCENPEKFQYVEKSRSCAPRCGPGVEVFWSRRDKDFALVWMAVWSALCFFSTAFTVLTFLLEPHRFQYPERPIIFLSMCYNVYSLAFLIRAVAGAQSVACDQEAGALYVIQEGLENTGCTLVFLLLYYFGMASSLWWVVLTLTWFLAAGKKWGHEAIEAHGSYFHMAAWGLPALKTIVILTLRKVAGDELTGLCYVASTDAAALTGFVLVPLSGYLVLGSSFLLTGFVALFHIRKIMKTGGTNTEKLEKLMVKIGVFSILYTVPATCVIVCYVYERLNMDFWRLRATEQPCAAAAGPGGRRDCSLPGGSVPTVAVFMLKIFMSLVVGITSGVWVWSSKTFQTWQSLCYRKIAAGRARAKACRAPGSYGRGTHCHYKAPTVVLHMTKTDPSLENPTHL
Method: as §1, §2

NMUR1 = molecular target: T3, NMUR1 (Homo sapiens, UniProt Q9HB89); test: NanoBRET screen HiBiT-NMUR1 in HEK293
T3 construct: purchased Promega (in-house HiBiT-GPCR construct library, NanoBRET)
T3 sequence (Q9HB89 1-426): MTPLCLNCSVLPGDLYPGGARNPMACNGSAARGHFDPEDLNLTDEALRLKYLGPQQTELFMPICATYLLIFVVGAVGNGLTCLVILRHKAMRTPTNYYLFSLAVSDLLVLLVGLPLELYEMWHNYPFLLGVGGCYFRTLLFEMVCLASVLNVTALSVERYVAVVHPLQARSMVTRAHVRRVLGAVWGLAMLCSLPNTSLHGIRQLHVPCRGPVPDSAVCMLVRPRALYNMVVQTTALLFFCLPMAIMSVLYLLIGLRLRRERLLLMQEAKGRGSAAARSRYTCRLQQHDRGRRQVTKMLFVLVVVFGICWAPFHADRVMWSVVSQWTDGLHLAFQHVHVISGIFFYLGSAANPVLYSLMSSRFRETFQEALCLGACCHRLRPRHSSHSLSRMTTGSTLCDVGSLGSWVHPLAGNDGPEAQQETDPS
Method: as §1, §2

CN1CCN(C2=Nc3cc(Cl)ccc3N(CC(=O)NCCOCCOCCOCCOCCNC(=O)CCc3ccc4n3[B-](F)(F)[N+]3=C(c5ccc[nH]5)C=CC3=C4)c3ccccc32)CC1 [Clozapine-c-2-NB590]
NanoBRET Fold Response (CXCR1; CXCR1, 0.1μM tracer): 0.99 | NanoBRET Fold Response (CXCR1; CXCR1, 1μM tracer): 0.94 | NanoBRET Fold Response (FZD9; FZD9, 0.1μM tracer): 0.95 | NanoBRET Fold Response (FZD9; FZD9, 1μM tracer): 0.95 | NanoBRET Fold Response (NMUR1; NMUR1, 0.1μM tracer): 1.01 | NanoBRET Fold Response (NMUR1; NMUR1, 1μM tracer): 1.00

CN(C)CCC=C1c2ccccc2CCc2ccc(C(=O)NCCNC(=O)CCOCCOCCOCCOCCNC(=O)CCc3ccc4n3[B-](F)(F)[N+]3=C(c5ccc[nH]5)C=CC3=C4)cc21 [Amitriptyline-a-2-NB590]
NanoBRET Fold Response (CXCR1; tracer at 0.1μM): 1.05 | NanoBRET Fold Response (CXCR1; tracer at 1μM): 0.97 | NanoBRET Fold Response (FZD9; tracer at 0.1μM): 0.96 | NanoBRET Fold Response (FZD9; tracer at 1μM): 1.07 | NanoBRET Fold Response (NMUR1; tracer at 0.1μM): 1.01 | NanoBRET Fold Response (NMUR1; tracer at 1μM): 0.99

Cc1nc2n(c(=O)c1CCN1CCC(c3noc4cc(F)ccc34)CC1)CCCC2OC(=O)NCCOCCOCCOCCOCCNC(=O)CCc1ccc2n1[B-](F)(F)[N+]1=C(c3ccc[nH]3)C=CC1=C2 (stereo not shown) [Risperidone-2-NB590]
NanoBRET Fold Response (CXCR1; CXCR1, tracer 0.1μM): 1.01 | NanoBRET Fold Response (CXCR1; CXCR1, tracer 1μM): 0.91 | NanoBRET Fold Response (FZD9; FZD9, tracer 0.1μM): 1.00 | NanoBRET Fold Response (FZD9; FZD9, tracer 1μM): 0.99 | NanoBRET Fold Response (NMUR1; NMUR1, tracer 0.1μM): 1.04 | NanoBRET Fold Response (NMUR1; NMUR1, tracer 1μM): 0.97

COc1ccc2[nH]c(-c3ccc(CNC(=O)CCOCCOCCOCCOCCNC(=O)CCc4ccc5n4[B-](F)(F)[N+]4=C(c6ccc[nH]6)C=CC4=C5)cc3)c(CCNC(C)=O)c2n1 [AzomelatoninICO9-2-NB590]
NanoBRET Fold Response (CXCR1; 0.1μM tracer): 1.06 | NanoBRET Fold Response (CXCR1; 1μM tracer): 0.96 | NanoBRET Fold Response (FZD9; 0.1μM tracer): 1.30 | NanoBRET Fold Response (FZD9; 1μM tracer): 0.94 | NanoBRET Fold Response (NMUR1; 0.1μM tracer): 0.77 | NanoBRET Fold Response (NMUR1; 1μM tracer): 0.91

COc1ccccc1N1CCN(CCCCN2C(=O)c3ccc(CNC(=O)CCOCCOCCOCCOCCNC(=O)CCc4ccc5n4[B-](F)(F)[N+]4=C(c6ccc[nH]6)C=CC4=C5)cc3C2=O)CC1 [NAN-190-2-NB590]
NanoBRET Fold Response (CXCR1; CXCR1, tracer 0.1μM): 0.97 | NanoBRET Fold Response (CXCR1; CXCR1, tracer 1μM): 1.05 | NanoBRET Fold Response (FZD9; FZD9, tracer 0.1μM): 0.96 | NanoBRET Fold Response (FZD9; FZD9, tracer 1μM): 1.06 | NanoBRET Fold Response (NMUR1; NMUR1, tracer 0.1μM): 0.99 | NanoBRET Fold Response (NMUR1; NMUR1, tracer 1μM): 0.98

CN(CCC=C1c2ccccc2CCc2ccccc21)C(=O)CCOCCOCCOCCOCCNC(=O)CCc1ccc2n1[B-](F)(F)[N+]1=C(c3ccc[nH]3)C=CC1=C2 [Amitriptyline-e-2-NB590]
NanoBRET Fold Response (CXCR1; tracer at 1μM): 0.93
